In the Kinase Knowledgebase extract (Sharma et al. 2016):
Converted amounts (≈) assume the structure as drawn. “And” between values parts separate entries of the source, which are not always exact repeats. Equal values may be shown once.

biological target: MAPK14 (human) (UniProt Q16539); assay: TNF Inhibition (PBMC); conditions: not given

IC50 [nM] | SMILES
400 | COc1ccc2c(-c3ccncc3)c(-c3ccc(F)cc3)[nH]c2c1
> 10000 | Fc1ccc(-c2[nH]c3ccccc3c2-c2ccncc2)cc1
200 | Nc1ccc2c(-c3ccncc3)c(-c3ccc(F)cc3)[nH]c2c1

same assay, conditions: concentration not given here

SMILES | inhibition [%]
C[Si](C)(C)CCOCn1c(CCCCO)nc(-c2ccncc2)c1-c1ccc(F)cc1 | 0
CC(=O)OCCCCc1nc(-c2ccncc2)c(-c2ccc(F)cc2)n1COCC[Si](C)(C)C | 0

biological target: MAPK14 (UniProt Q16539); assay: p38 Inhibition; conditions: not given

IC50 [nM] | SMILES
> 30000 | O=C(CCCNc1ncc(C(F)(F)F)cc1Cl)NNS(=O)(=O)c1ccc(CNC(=O)c2ccc(Cl)cc2)cc1
> 30000 | O=C(NCc1ccc(S(=O)(=O)NNC(=O)c2csc(-c3ccc(C4SCCS4)cc3)n2)s1)c1ccc(Cl)cc1
> 30000 | O=C(NCc1ccc(S(=O)(=O)NNC(=O)c2csc(COc3ccccc3Cl)n2)s1)c1ccc(Cl)cc1

biological target: MAPK14 (UniProt Q16539); assay: MAPK14 Kinase Inhibition; conditions: not given

IC50 [nM] | SMILES
< 50000 | Cc1ccccc1Nc1nccc(-c2cccnc2-c2ccc(F)cc2)n1
< 50000 | Fc1ccc(-c2ncccc2-c2ccnc(Oc3ccccc3)n2)cc1
< 50000 | Nc1nccc(-c2cccnc2-c2ccc(F)cc2)n1
< 50000 | CSc1nccc(-c2cccnc2-c2ccc(F)cc2)n1
< 50000 | COc1nccc(-c2cccnc2-c2ccc(F)cc2)n1

biological target: MAPK14 (UniProt Q16539); assay: Inhibition of p38 Kinase Activity; conditions: not given

IC50 [nM] | SMILES
> 30000 | O=C(CCCNc1ncc(C(F)(F)F)cc1Cl)NNS(=O)(=O)c1ccc(CNC(=O)c2ccc(Cl)cc2)cc1
> 30000 | O=C(CCCNc1ncc(C(F)(F)F)cc1Cl)NNS(=O)(=O)c1ccc(CNC(=O)c2ccccc2O)s1
> 30000 | NC(=O)c1cccn(Cc2ccc(S(=O)(=O)NNC(=O)CCCNc3ncc(C(F)(F)F)cc3Cl)s2)c1=O
> 30000 | O=C(NCc1ccc(S(=O)(=O)NNC(=O)c2csc(-c3ccc(C4SCCS4)cc3)n2)s1)c1ccc(Cl)cc1
> 30000 | O=C(NCc1ccc(S(=O)(=O)NNC(=O)c2csc(COc3ccccc3Cl)n2)s1)c1ccc(Cl)cc1

biological target: MAPK14 (UniProt Q16539); assay: p38 Inhibition Assay (in Vitro); conditions: not given

SMILES | IC50 [nM]
O=C(NCc1ccc(S(=O)(=O)N2CCC(C(=O)c3ccc(F)cc3F)CC2)s1)c1ccc(Cl)cc1 | > 30000
O=C(NCc1ccc(S(=O)(=O)N2CCN(C(=O)N3C=Cc4oncc4C3)CC2)s1)c1ccc(Cl)cc1 | > 30000

Next, values leading:

IC50 [nM] | SMILES
> 30000 | O=C(NCc1ccc(S(=O)(=O)N2CCN(c3ncccn3)CC2)s1)c1ccc(Cl)cc1
> 30000 | O=C(NCc1ccc(S(=O)(=O)N2CCC(Nc3cccc(S(=O)(=O)C(F)(F)F)c3)CC2)s1)c1ccc(Cl)cc1
> 30000 | O=C(NCc1ccc(S(=O)(=O)N2CCC(n3nnc4ccccc43)CC2)s1)c1ccc(Cl)cc1

biological target: CDK2 (human) (UniProt P24941); assay: Enzyme Assay; conditions: not given

IC50 [nM] | SMILES
50 | Cc1ccnc(NS(=O)(=O)c2ccc(Nc3nc(C)c4c(=O)[nH]c(Nc5cccc(Cl)c5)nc4n3)cc2)n1
> 10000 | Cc1ccnc(NS(=O)(=O)c2ccc(Nc3nc(C)c4c(=O)[nH]c(Nc5ccc(S(=O)(=O)O)cc5)nc4n3)cc2)n1

same assay, conditions: concentration not given here

inhibition [%] | SMILES
1 | O=C(NCc1ccc(S(=O)(=O)N2CCC(n3nnc4ccccc43)CC2)s1)c1ccc(Cl)cc1

biological target: MAPK14 (human) (UniProt Q16539); assay: p38-alpha Kinase Inhibition; conditions: COS-1

IC50 [nM] | SMILES
> 100000 | Cc1ccccc1Cc1ccc(Nc2ccc(F)cc2C)cc1Cl

test system: PIK3CG (murine); assay: Inhibition of C5a-Mediated AKT Phosphorylation in Raw 264.7 Macrophages; conditions: not given

SMILES | inhibition [%]
O=C1NC(=O)/C(=C/c2ccc3nsnc3c2)S1 | 100
N=C1NC(=O)/C(=C/c2ccc3nccnc3c2)S1 | 100
O=C1NC(=O)/C(=C/c2ccc3ncnc(N4CCCCC4)c3c2)S1 | 100
O=C1NC(=O)/C(=C/c2ccc3c(c2)OCO3)S1 | 100

biological target: ROCK2 (UniProt O75116); assay: Inhibition of ROCK2 Kinase Activity; conditions: not given

IC50 [nM] | SMILES
5000 to 10000 | N#C/C(=C1/Nc2ccccc2S1)c1ccnc(NCCc2cccnc2)n1
600 | NS(=O)(=O)c1ccc(Nc2nc(OCC3CCCCC3)c3nc[nH]c3n2)cc1

same assay, conditions: concentration not given here

inhibition [%] | SMILES
-18 | Oc1cc2nc(-c3cccs3)c(-c3cccs3)nc2cc1O
> 50 | NC(=O)c1c(NC(=O)Nc2ccccc2)sc2cc(O)ccc12

biological target: ROCK2 (human) (UniProt O75116); assay: Inhibition of ROCK2 Kinase Activity; conditions: concentration not given here

inhibition [%] | SMILES
-1 | O=C(NCc1ccc(S(=O)(=O)N2CCC(n3nnc4ccccc43)CC2)s1)c1ccc(Cl)cc1

biological target: PIK3CG (UniProt P48736); assay: Inhibition of PIK3CG Kinase Activity; conditions: not given

IC50 [nM] | SMILES
> 10000 | N#C/C(=C1/Nc2ccccc2S1)c1ccnc(NCCc2cccnc2)n1

biological target: MAPK14 (human) (UniProt Q16539); assay: Inhibition of Doubly Phosphorylated MAPK14 Kinase Activity (Biochemical Assay); conditions: not given

IC50 [nM] | SMILES
21 | NC(=O)Cc1cccc(-n2nc(-c3cccc(F)c3)cc2NC(=O)Nc2cccc(Cl)c2Cl)c1
10 | NC(=O)Cc1cccc(-n2nc(-c3ccccc3F)cc2NC(=O)Nc2cccc(Cl)c2Cl)c1
86 | Cc1ccsc1-c1cc(NC(=O)Nc2cccc(Cl)c2Cl)n(-c2cccc(CC(N)=O)c2)n1

test system: ERBB2;PIK3CA (human), P42336 [Assessment of Cell Proliferation in MCF7.1 Cells Expressed by ERBB2/ PI3K(E545K)]; assay: Assessment of Cell Proliferation in MCF7.1 Cells Expressed by ERBB2/ PI3K(E545K); conditions: not given

EC50 | SMILES
290 nM | CC(C)(N)c1cc2nc(-c3cnc(N)nc3)nc(N3CCOCC3)c2s1
170 nM | CN(Cc1cc2nc(-c3cnc(N)nc3)nc(N3CCOCC3)c2s1)S(C)(=O)=O
430 nM | Nc1ncc(-c2nc(N3CCOCC3)c3sccc3n2)cn1
40 nM and 33 nM | CS(=O)(=O)c1cccc(-c2cc3nc(-c4cnc(N)nc4)nc(N4CCOCC4)c3s2)c1

SMILES | EC50
CC(=O)N(C)Cc1cc2nc(-c3cnc(N)nc3)nc(N3CCOCC3)c2s1 | 190 nM and 187 nM

biological target: EGFR (mouse) (UniProt P00533); assay: not given; conditions: swiss 3t3 fibroblast

SMILES | IC50 [nM]
CN1C(=S)C(C(=O)Nc2ccccc2)c2ccccc21 (centres undefined) | > 100000
Cn1c(SSc2c(C(=O)Nc3ccccc3)c3cccnc3n2C)c(C(=O)Nc2ccccc2)c2cccnc21 | > 25000
COc1cccc2c(C(=O)Nc3ccccc3)c(SSc3c(C(=O)Nc4ccccc4)c4cccc(OC)c4n3C)n(C)c12 | > 100000
Cn1c(SSc2c(C(=O)Nc3ccccc3)c3ccccc3n2C)c(C(=O)Nc2ccccc2)c2ccccc21 | > 100000
COc1ccc2c(C(=O)Nc3ccccc3)c(SSc3c(C(=O)Nc4ccccc4)c4ccc(OC)cc4n3C)n(C)c2c1 | > 100000

biological target: EGFR (murine) (UniProt P00533); assay: not given; conditions: f/l herc cells
Sequence (P00533 whole entry, looked up): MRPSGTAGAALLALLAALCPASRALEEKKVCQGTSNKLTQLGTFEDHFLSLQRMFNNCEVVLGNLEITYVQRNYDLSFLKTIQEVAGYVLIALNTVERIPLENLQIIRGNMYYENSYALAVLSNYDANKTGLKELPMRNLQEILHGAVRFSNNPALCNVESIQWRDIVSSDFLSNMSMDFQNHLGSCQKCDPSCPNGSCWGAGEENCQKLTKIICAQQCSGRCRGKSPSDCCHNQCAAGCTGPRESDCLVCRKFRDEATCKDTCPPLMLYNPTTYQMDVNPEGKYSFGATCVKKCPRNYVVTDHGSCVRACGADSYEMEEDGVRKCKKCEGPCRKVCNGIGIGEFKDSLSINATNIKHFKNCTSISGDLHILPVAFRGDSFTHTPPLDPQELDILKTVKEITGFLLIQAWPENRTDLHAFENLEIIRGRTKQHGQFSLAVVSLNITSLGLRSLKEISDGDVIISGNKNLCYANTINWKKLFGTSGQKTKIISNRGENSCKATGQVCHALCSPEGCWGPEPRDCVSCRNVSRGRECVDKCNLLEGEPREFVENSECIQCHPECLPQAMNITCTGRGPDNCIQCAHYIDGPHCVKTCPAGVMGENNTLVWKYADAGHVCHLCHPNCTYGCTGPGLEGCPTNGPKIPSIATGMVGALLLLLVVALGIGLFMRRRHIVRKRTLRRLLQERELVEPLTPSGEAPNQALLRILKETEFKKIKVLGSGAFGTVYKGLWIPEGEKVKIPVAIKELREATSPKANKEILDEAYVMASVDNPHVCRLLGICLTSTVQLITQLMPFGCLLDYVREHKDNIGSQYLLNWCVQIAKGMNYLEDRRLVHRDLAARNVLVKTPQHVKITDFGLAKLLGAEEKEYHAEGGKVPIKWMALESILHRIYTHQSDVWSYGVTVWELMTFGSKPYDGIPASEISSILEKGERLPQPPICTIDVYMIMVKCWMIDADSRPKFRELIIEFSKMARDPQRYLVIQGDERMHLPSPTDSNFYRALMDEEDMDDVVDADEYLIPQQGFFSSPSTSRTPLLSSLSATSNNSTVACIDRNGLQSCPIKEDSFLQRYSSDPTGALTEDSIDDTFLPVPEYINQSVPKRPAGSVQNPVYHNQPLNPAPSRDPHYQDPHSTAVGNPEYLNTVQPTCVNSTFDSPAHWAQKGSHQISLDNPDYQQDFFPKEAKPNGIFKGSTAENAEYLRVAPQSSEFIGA

IC50 [nM] | SMILES
100 | CCOC(=O)CN(C)CCOc1cc2c(Nc3cccc(Br)c3)ncnc2cc1OC
33 | CCOC(=O)CN1CCN(CCCOc2cc3c(Nc4cccc(Br)c4)ncnc3cc2OC)C(O)C1 (centres undefined)
77 | COC(=O)CCC1CN(CC(=O)OC)CCN1CCOc1cc2c(Nc3cccc(Br)c3)ncnc2cc1OC (centres undefined)
20 | CCOC(=O)CN1CCC[C@H]1COc1cc2c(Nc3cccc(Br)c3)ncnc2cc1OC
70 | CCOC(=O)CN(CCOc1cc2c(Nc3cccc(Br)c3)ncnc2cc1OC)CC(=O)OCC

biological target: EGFR (human) (UniProt P00533); assay: not given; conditions: hn5
Sequence (P00533 whole entry, looked up): as above

IC50 [nM] | SMILES
720 | CS(=O)(=O)NCCNCc1ccc(-c2cc3c(Nc4ccc(OCc5ccccc5)cc4)ncnc3cn2)o1
460 | OCc1ccc(-c2cc3c(Nc4ccc(OCc5ccccc5)cc4)ncnc3cn2)o1
3300 | CN(C)C(=O)[C@@H]1CCCN1Cc1ccc(-c2cc3c(Nc4ccc(OCc5ccccc5)cc4)ncnc3cn2)o1
350 | NC(=O)[C@H]1CCCN1Cc1ccc(-c2cc3c(Nc4ccc(OCc5ccccc5)cc4)ncnc3cn2)o1
350 | CN(CC(N)=O)Cc1ccc(-c2cc3c(Nc4ccc(OCc5ccccc5)cc4)ncnc3cn2)o1

biological target: EGFR (Balb/c mice) (UniProt P00533); assay: not given; conditions: not given

SMILES | LD50 [mg/kg]
Cc1ccc2ncnc(Nc3cccc(Cl)c3)c2c1 | > 400

biological target: EGFR (UniProt P00533); assay: not given; conditions: not given
Sequence (P00533 whole entry, looked up): as above

IC50 [nM] | SMILES
200 | CN(C)CCCC(=O)N1CCOc2cc3ncc(C#N)c(Nc4ccc(F)c(Cl)c4)c3cc21
5 | CN(C)CCCCN1CCOc2cc3ncc(C#N)c(Nc4ccc(F)c(Cl)c4)c3cc21
1000 | N#Cc1cnc2cc3c(cc2c1Nc1ccc(F)c(Cl)c1)N(C(=O)/C=C/CBr)CCO3.N#Cc1cnc2cc3c(cc2c1Nc1ccc(F)c(Cl)c1)N(C(=O)/C=C/CCl)CCO3

same assay, conditions: concentration not given here

inhibition [%] | SMILES
29.9 | N#Cc1cnc2cc3c(cc2c1Nc1ccc(F)c(Cl)c1)N(C(=O)/C=C/CBr)CCO3.N#Cc1cnc2cc3c(cc2c1Nc1ccc(F)c(Cl)c1)N(C(=O)/C=C/CCl)CCO3

biological target: EGFR (human) (UniProt P00533); assay: not given; conditions: not given

IC50 [µg/mL] | SMILES
0.046 (≈ 0.101 µM) | Brc1cccc(Nc2ncnc3cc4c(cc23)OC(CN2CCOCC2)CO4)c1 (centres undefined)
0.021 (≈ 0.0442 µM) | OCCN(CCO)CC1COc2cc3ncnc(Nc4cccc(Br)c4)c3cc2O1 (centres undefined)
0.058 (≈ 0.123 µM) | CN1CCN(CC2COc3cc4ncnc(Nc5cccc(Br)c5)c4cc3O2)CC1 (centres undefined)
0.022 (≈ 0.051 µM) | OCCNCC1COc2cc3ncnc(Nc4cccc(Br)c4)c3cc2O1 (centres undefined)

biological target: EGFR (UniProt P00533); assay: not given; conditions: not given; remark: another data set of the same source

IC50 [nM] | SMILES
10000 | N#Cc1cnc2c(sc3ccc(N)cc32)c1Nc1cccc(Br)c1
10000 | C=CC(=O)Nc1ccc2sc3c(Nc4cccc(Br)c4)c(C#N)cnc3c2c1
1.5 | N#Cc1cnc2cc3nc[nH]c3cc2c1Nc1cccc(Br)c1
10000 | N#Cc1cnc2c(sc3ccc([N+](=O)[O-])cc32)c1Nc1cccc(Br)c1

biological target: EGFR (UniProt P00533); assay: not given; conditions: concentration not given here

inhibition [%] | SMILES
> 50 | NC(=O)c1c(NC(=O)Nc2ccccc2)sc2cc(O)ccc12

biological target: EGFR (human) (UniProt P00533); assay: not given; conditions: not given; remark: another data set of the same source

IC50 [nM] | SMILES
6600 | Cc1ccnc(NS(=O)(=O)c2ccc(Nc3nc(C)c4c(=O)[nH]c(NCc5ccccc5)nc4n3)cc2)n1
> 10000 | Cc1ccnc(NS(=O)(=O)c2ccc(Nc3nc(C)c4c(=O)[nH]c(Nc5cccc(Cl)c5)nc4n3)cc2)n1
5500 | Cc1ccnc(NS(=O)(=O)c2ccc(Nc3nc(-c4ccc(O)cc4O)c4c(=O)[nH]c(SCc5ccccc5)nc4n3)cc2)n1
8100 | Cc1ccnc(NS(=O)(=O)c2ccc(Nc3nc(C)c4c(=O)[nH]c(Nc5ccc(S(=O)(=O)O)cc5)nc4n3)cc2)n1
7800 | Cc1ccnc(NS(=O)(=O)c2ccc(Nc3nc(C)c4c(=O)[nH]c(SCc5ccccc5)nc4n3)cc2)n1

biological target: EGFR (human) (UniProt P00533); assay: not given; conditions: a431

IC50 [nM] | SMILES
44100 | Nc1nc(Nc2ccc(Cl)cc2)c2c(n1)[nH]c1cccc(Cl)c12
167000 | COc1cccc(Nc2nc(N)nc3[nH]c4cccc(Cl)c4c23)c1
> 250000 | CC(C)(C)C(=O)Nc1nc(Nc2cccc(F)c2)c2c(n1)[nH]c1cccc(Cl)c12
> 250000 | CC(C)c1ccc(Nc2nc(NC(=O)C(C)(C)C)nc3[nH]c4cccc(Cl)c4c23)cc1
55000 | CC(C)(C)C(=O)Nc1nc(Nc2ccc(Cl)cc2)c2c(n1)[nH]c1cccc(Cl)c12

biological target: EGFR (Human), P00533 [T790M/L858R]; assay: not given; conditions: not given
Sequence (P00533 whole entry T790M/L858R, looked up): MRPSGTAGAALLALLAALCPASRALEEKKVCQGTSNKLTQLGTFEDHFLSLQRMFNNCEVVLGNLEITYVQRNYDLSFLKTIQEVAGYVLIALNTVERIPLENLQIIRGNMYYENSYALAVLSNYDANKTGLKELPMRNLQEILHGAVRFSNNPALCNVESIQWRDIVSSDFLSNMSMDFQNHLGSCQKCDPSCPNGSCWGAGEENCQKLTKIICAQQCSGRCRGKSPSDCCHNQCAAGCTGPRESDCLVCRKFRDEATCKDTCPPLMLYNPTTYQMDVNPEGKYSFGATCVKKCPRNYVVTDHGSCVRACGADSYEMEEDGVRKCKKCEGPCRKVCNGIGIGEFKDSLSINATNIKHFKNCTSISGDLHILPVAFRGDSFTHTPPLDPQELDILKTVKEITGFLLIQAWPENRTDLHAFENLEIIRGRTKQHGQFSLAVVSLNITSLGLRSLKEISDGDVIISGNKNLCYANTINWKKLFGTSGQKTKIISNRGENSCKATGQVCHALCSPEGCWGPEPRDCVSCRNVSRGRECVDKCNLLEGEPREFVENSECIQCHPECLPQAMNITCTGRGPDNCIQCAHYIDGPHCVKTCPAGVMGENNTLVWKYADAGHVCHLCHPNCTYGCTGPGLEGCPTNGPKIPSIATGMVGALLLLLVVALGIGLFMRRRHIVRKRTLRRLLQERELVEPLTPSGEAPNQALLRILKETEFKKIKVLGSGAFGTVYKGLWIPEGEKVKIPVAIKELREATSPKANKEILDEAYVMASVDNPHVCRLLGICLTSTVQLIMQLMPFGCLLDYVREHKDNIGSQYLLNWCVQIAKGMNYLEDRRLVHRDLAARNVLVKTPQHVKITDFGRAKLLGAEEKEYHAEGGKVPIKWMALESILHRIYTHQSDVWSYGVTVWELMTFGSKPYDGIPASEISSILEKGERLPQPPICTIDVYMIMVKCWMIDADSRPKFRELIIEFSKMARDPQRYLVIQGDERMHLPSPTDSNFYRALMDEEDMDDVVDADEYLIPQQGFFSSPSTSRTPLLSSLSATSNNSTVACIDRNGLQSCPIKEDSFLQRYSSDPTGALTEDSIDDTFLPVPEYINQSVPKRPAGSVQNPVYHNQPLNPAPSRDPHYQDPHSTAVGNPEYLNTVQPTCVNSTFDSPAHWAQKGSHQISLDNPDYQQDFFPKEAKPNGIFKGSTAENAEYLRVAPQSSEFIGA

SMILES | IC50 [nM]
C=CC(=O)N[C@@H]1CCCC[C@H](Nc2nc(Nc3cnn(C)c3)ncc2Cl)C1 | 10 to 100
C=CC(=O)N[C@H]1CCC[C@@H](Nc2nc(Nc3cnn(C)c3)ncc2Cl)C1 | 10 to 100

The remaining lines, values ahead:

IC50 [nM] | SMILES
10 to 100 | C=CC(=O)Nc1cccc(Nc2nc(Nc3cn(C)nc3C)ncc2Cl)n1
< 10 | C=CC(=O)Nc1ccc(F)c(Nc2nc(Nc3cn(C)nc3C)ncc2Cl)c1
10 to 100 | C=CC(=O)Nc1cccc(Nc2nc(NCc3cnn(C)c3)ncc2Cl)c1
